Oligonucleotides are written 5' to 3', each unit as a sugar letter and its base; * is a phosphorothioate linkage, no mark a phosphodiester; rarer units and linkages stand in square brackets, end groups in braces. Plain capitals give the bases only. e = 2'-O-(2-methoxyethyl) (MOE); [5mC] = 5-methylcytosine; d = 2'-deoxy (DNA)

The data set concerns murine TTC39B mRNA. As to the kind of experiment: Antisense inhibition of murine TTC39B in mouse primary hepatocytes, single dose. To be noted: 100 nM, cytofectin, ~24 h, vs untreated control. The format is cell-based. As to the method: Antisense oligonucleotides targeted to a TTC39B nucleic acid were tested for their effects on TTC39B mRNA in vitro. Cultured mouse primary hepatocytes at a density of 10,000 cells per well were transfected using cytofectin reagent with 100 nM antisense oligonucleotide. After a treatment period of approximately 24 hours, RNA was isolated from the cells and TTC39B mRNA levels were measured by quantitative real-time PCR. TTC39B mRNA levels were adjusted according to total RNA content, as measured by RIBOGREEN®. Results are presented as percent inhibition of TTC39B, relative to untreated control cells.
The chimeric antisense oligonucleotides in Tables 1 and 2 were designed as 5-10-5 MOE gapmers. The gapmers are 20 nucleotides in length, wherein the central gap segment is comprised of 10 2′-deoxynucleotides and is flanked on both sides (in the 5′ and 3′ directions) by wings comprising 5 nucleotides each. Each nucleotide in the 5′ wing segment and each nucleotide in the 3′ wing segment has a 2′-MOE modification. The internucleoside linkages throughout each gapmer are phosphorothioate (P═S) linkages. All cytosine residues throughout each gapmer are 5-methylcytosines. “Target start site” indicates the 5′-most nucleotide to which the gapmer is targeted. “Target stop site” indicates the 3′-most nucleotide to which the gapmer is targeted. Each gapmer listed in Table 1 is targeted to SEQ ID NO: 6 (GENBANK Accession No. NM_027238.2) and each gapmer listed in Table 2 is targeted to SEQ ID NO: 10 (the complement of GENBANK Accession No. NT—039260.7 truncated at nucleotides 22491001 to 22601000), SEQ ID NO: 11 (GENBANK Accession No. BY244623.1), SEQ ID NO: 12 (GENBANK Accession No. BY260936), SEQ ID NO: 13 (GENBANK Accession No. BM935568.1) or SEQ ID NO: 14 (GENBANK Accession No. BY728780.1).

The mark [1] stands for this setting: gapmers targeted to SEQ ID NO: 6.
Where [2] appears, read: gapmers targeted to SEQ ID NO: 10-14.

“GCAGCCATGGCCCTGGGTCA (antisense eG*e[5mC]*eA*eG*e[5mC]*d[5mC]*dA*dT*dG*dG*d[5mC]*d[5mC]*d[5mC]*dT*dG*eG*eG*eT*e[5mC]*eA) [ISIS 447141]”: the “% inhibition of murine TTC39B mRNA” value under setting [1] came out at 40%. On the same count and under the same terms, next, “GCAGCTTTCAAGAACACATA (antisense eG*e[5mC]*eA*eG*e[5mC]*dT*dT*dT*d[5mC]*dA*dA*dG*dA*dA*d[5mC]*eA*e[5mC]*eA*eT*eA) [ISIS 447123]”: 47%. Take “GCCAGCCAGGGCAGGCACTC (antisense eG*e[5mC]*e[5mC]*eA*eG*d[5mC]*d[5mC]*dA*dG*dG*dG*d[5mC]*dA*dG*dG*e[5mC]*eA*e[5mC]*eT*e[5mC]) [ISIS 447163]”: the “% inhibition of murine TTC39B mRNA” value under setting [2] is listed as 50%. The same measure, in the same setting: next, “GCCCATGCACGGGTGGAGGA (antisense eG*e[5mC]*e[5mC]*e[5mC]*eA*dT*dG*d[5mC]*dA*d[5mC]*dG*dG*dG*dT*dG*eG*eA*eG*eG*eA) [ISIS 447156]”: 16%. As for “GCGCCTTCCCGGAGCTGCAG (antisense eG*e[5mC]*eG*e[5mC]*e[5mC]*dT*dT*d[5mC]*d[5mC]*d[5mC]*dG*dG*dA*dG*d[5mC]*eT*eG*e[5mC]*eA*eG) [ISIS 447116]”, under setting [1], the “% inhibition of murine TTC39B mRNA” value was found to be 56%. In the case of “GCTTACCTTGGACCATTTAC (eG*e[5mC]*eT*eT*eA*d[5mC]*d[5mC]*dT*dT*dG*dG*dA*d[5mC]*d[5mC]*dA*eT*eT*eT*eA*e[5mC]; antisense) [ISIS 447173]”, the “% inhibition of murine TTC39B mRNA” value under setting [2] was 59%. For “GGAGATGTGTGTACGGCAGC (antisense eG*eG*eA*eG*eA*dT*dG*dT*dG*dT*dG*dT*dA*d[5mC]*dG*eG*e[5mC]*eA*eG*e[5mC]) [ISIS 447161]”, under setting [2], the “% inhibition of murine TTC39B mRNA” value was determined as 14%. Regarding “GGCAGAGTATAAGAATTTCT (antisense eG*eG*e[5mC]*eA*eG*dA*dG*dT*dA*dT*dA*dA*dG*dA*dA*eT*eT*eT*e[5mC]*eT) [ISIS 447133]”, under setting [1], the “% inhibition of murine TTC39B mRNA” value came out at 56%. The same measure, in the same setting: next, “GGCTCTGGGTTCAGCCCAGC (antisense eG*eG*e[5mC]*eT*e[5mC]*dT*dG*dG*dG*dT*dT*d[5mC]*dA*dG*d[5mC]*e[5mC]*e[5mC]*eA*eG*e[5mC]) [ISIS 447098]”: 44%. For the sequence “GGTGCCCGGACCAGCCCGCT (antisense eG*eG*eT*eG*e[5mC]*d[5mC]*d[5mC]*dG*dG*dA*d[5mC]*d[5mC]*dA*dG*d[5mC]*e[5mC]*e[5mC]*eG*e[5mC]*eT) [ISIS 447158]”, the “% inhibition of murine TTC39B mRNA” value under setting [2] amounted to 39%. Regarding “GTCCGATGGAGATCTAGAGA (antisense eG*eT*e[5mC]*e[5mC]*eG*dA*dT*dG*dG*dA*dG*dA*dT*d[5mC]*dT*eA*eG*eA*eG*eA) [ISIS 447102]”, the “% inhibition of murine TTC39B mRNA” value under setting [1] is reported as 84%. Still for that read-out and setting: next, “GTTCCGGATCAGTCCGTGGA (antisense eG*eT*eT*e[5mC]*e[5mC]*dG*dG*dA*dT*d[5mC]*dA*dG*dT*d[5mC]*d[5mC]*eG*eT*eG*eG*eA) [ISIS 447132]”: 58%. Turning to “GTTTCTTGAGCCTATAAGTC (eG*eT*eT*eT*e[5mC]*dT*dT*dG*dA*dG*d[5mC]*d[5mC]*dT*dA*dT*eA*eA*eG*eT*e[5mC]; antisense) [ISIS 447172]”, the “% inhibition of murine TTC39B mRNA” value under setting [2] stood at 54%. Regarding “GTTTTTCACTTTCCACAACG (antisense eG*eT*eT*eT*eT*dT*d[5mC]*dA*d[5mC]*dT*dT*dT*d[5mC]*d[5mC]*dA*e[5mC]*eA*eA*e[5mC]*eG) [ISIS 447128]”, the “% inhibition of murine TTC39B mRNA” value under setting [1] amounted to 56%. The same measure, in the same setting: next, “TACAGACCATGAGCTTTGAT (antisense eT*eA*e[5mC]*eA*eG*dA*d[5mC]*d[5mC]*dA*dT*dG*dA*dG*d[5mC]*dT*eT*eT*eG*eA*eT) [ISIS 447145]”: 61%; “TAGTAATACGCCTGCATCCA (antisense eT*eA*eG*eT*eA*dA*dT*dA*d[5mC]*dG*d[5mC]*d[5mC]*dT*dG*d[5mC]*eA*eT*e[5mC]*e[5mC]*eA) [ISIS 447121]”: 53%. Regarding “TATGGAGAAGCAGATGGCCT (eT*eA*eT*eG*eG*dA*dG*dA*dA*dG*d[5mC]*dA*dG*dA*dT*eG*eG*e[5mC]*e[5mC]*eT; antisense) [ISIS 447175]”, the “% inhibition of murine TTC39B mRNA” value under setting [2] was 56%. Take “TCATATTTTCATCCTGCACA (antisense eT*e[5mC]*eA*eT*eA*dT*dT*dT*dT*d[5mC]*dA*dT*d[5mC]*d[5mC]*dT*eG*e[5mC]*eA*e[5mC]*eA) [ISIS 447109]”: under setting [1], the “% inhibition of murine TTC39B mRNA” value was determined as 41%. Turning to “TCCAAGGCATCTTCAAAGAT (antisense eT*e[5mC]*e[5mC]*eA*eA*dG*dG*d[5mC]*dA*dT*d[5mC]*dT*dT*d[5mC]*dA*eA*eA*eG*eA*eT) [ISIS 447101]”, the “% inhibition of murine TTC39B mRNA” value under setting [1] is given as 36%. The same measure, in the same setting: next, “TCCACCTTGGCTGATGAACC (antisense eT*e[5mC]*e[5mC]*eA*e[5mC]*d[5mC]*dT*dT*dG*dG*d[5mC]*dT*dG*dA*dT*eG*eA*eA*e[5mC]*e[5mC]) [ISIS 447104]”: 48%; “TCCACTCGGCTGCCCACGAG (antisense eT*e[5mC]*e[5mC]*eA*e[5mC]*dT*d[5mC]*dG*dG*d[5mC]*dT*dG*d[5mC]*d[5mC]*d[5mC]*eA*e[5mC]*eG*eA*eG) [ISIS 447100]”: 62%; “TCCAGAGATGAAGAGCTGCT (antisense eT*e[5mC]*e[5mC]*eA*eG*dA*dG*dA*dT*dG*dA*dA*dG*dA*dG*e[5mC]*eT*eG*e[5mC]*eT) [ISIS 447131]”: 60%. Take “TCCAGATCATTATGTTTACA (eT*e[5mC]*e[5mC]*eA*eG*dA*dT*d[5mC]*dA*dT*dT*dA*dT*dG*dT*eT*eT*eA*e[5mC]*eA; antisense) [ISIS 447174]”: under setting [2], the “% inhibition of murine TTC39B mRNA” value amounted to 50%. Take “TCCGGTGCGCACCCAGTACC (antisense eT*e[5mC]*e[5mC]*eG*eG*dT*dG*d[5mC]*dG*d[5mC]*dA*d[5mC]*d[5mC]*d[5mC]*dA*eG*eT*eA*e[5mC]*e[5mC]) [ISIS 447155]”: under setting [2], the “% inhibition of murine TTC39B mRNA” value amounted to 23%. Consider “TCTGGAAGCATGCTCAAAAT (antisense eT*e[5mC]*eT*eG*eG*dA*dA*dG*d[5mC]*dA*dT*dG*d[5mC]*dT*d[5mC]*eA*eA*eA*eA*eT) [ISIS 447124]”, for which the “% inhibition of murine TTC39B mRNA” value under setting [1] is 60%. Same read-out and setting: next, “TCTTCACTCAGTTGTTCCAG (antisense eT*e[5mC]*eT*eT*e[5mC]*dA*d[5mC]*dT*d[5mC]*dA*dG*dT*dT*dG*dT*eT*e[5mC]*e[5mC]*eA*eG) [ISIS 447108]”: 49%.

In the case of “TGTCCGATGGAGATTGTTAA (antisense eT*eG*eT*e[5mC]*e[5mC]*dG*dA*dT*dG*dG*dA*dG*dA*dT*dT*eG*eT*eT*eA*eA) [ISIS 447164]”, the “% inhibition of murine TTC39B mRNA” value under setting [2] was found to be 0%. For the sequence “TGTTTCCAGAAAATCCAATA (antisense eT*eG*eT*eT*eT*d[5mC]*d[5mC]*dA*dG*dA*dA*dA*dA*dT*d[5mC]*e[5mC]*eA*eA*eT*eA) [ISIS 447115]”, the “% inhibition of murine TTC39B mRNA” value under setting [1] is 56%. Same read-out and setting: next, “TTATACAAAAATGCCAACTC (antisense eT*eT*eA*eT*eA*d[5mC]*dA*dA*dA*dA*dA*dT*dG*d[5mC]*d[5mC]*eA*eA*e[5mC]*eT*e[5mC]) [ISIS 447129]”: 34%. For the sequence “TTCCAGCTCGGCTGCGCCAC (antisense eT*eT*e[5mC]*e[5mC]*eA*dG*d[5mC]*dT*d[5mC]*dG*dG*d[5mC]*dT*dG*d[5mC]*eG*e[5mC]*e[5mC]*eA*e[5mC]) [ISIS 447157]”, under setting [2], the “% inhibition of murine TTC39B mRNA” value amounted to 21%.

For “TTCTTACAAACATCCTAAGA (antisense eT*eT*e[5mC]*eT*eT*dA*d[5mC]*dA*dA*dA*d[5mC]*dA*dT*d[5mC]*d[5mC]*eT*eA*eA*eG*eA) [ISIS 447148]”, the “% inhibition of murine TTC39B mRNA” value under setting [1] is recorded as 54%. Regarding “TTTGGCAGGTTTGTAAAGCG (antisense eT*eT*eT*eG*eG*d[5mC]*dA*dG*dG*dT*dT*dT*dG*dT*dA*eA*eA*eG*e[5mC]*eG) [ISIS 447107]”, the “% inhibition of murine TTC39B mRNA” value under setting [1] came to 61%.

Source of the values: patent US20120270929A1, “MODULATION OF TTC39 EXPRESSION TO INCREASE HDL” (ISIS Pharmaceuticals, Inc., priority 2009, published 2012).
